In ChEMBL document CHEMBL4665878, “A new naphthalene derivative with anti-amyloidogenic activity as potential therapeutic agent for Alzheimer's disease” (Bioorg Med Chem, 2020):
Active and inactive are the calls of the source. The rule behind the calls is not given here.

Experiments:
[1] = test system: Astrocyte; assay: Cytotoxicity against C57BL/J6 mouse astrocyte assessed as cell viability after 24 hrs by MTT assay; type: cell-based
[2] = biological target: Amyloid-beta precursor protein (Homo sapiens) (UniProt P05067); assay: Inhibition of Abeta(1 to 42) peptide aggregation in immortalized human microglia with SV40 assessed as reduction in fluorescence intensity at 1 nM and measured after 48 hrs by thiazine red staining method; type: tissue-based
[3] = biological target: Amyloid-beta precursor protein (Homo sapiens) (UniProt P05067); assay: Inhibition of Abeta(1 to 42) peptide aggregation in immortalized human microglia with SV40 assessed as reduction in fluorescence intensity at 0.001 to 50 micromol/L and measured after 48 hrs by thiazine red staining method; type: tissue-based; conditions: dose micromol/L 0.001-50, time 48.0 hrs
[4] = test system: Mus musculus; assay: Reduction in amyloid beta plaques in po dosed 3xTg-AD transgenic mouse brain hippocampus subiculum using BAM-10 primary antibody by immunohistochemical assay relative to 3xTg-AD-non T; type: functional, organism-based
[5] = test system: Mus musculus; assay: Cognitive enhancing effect in 3xTg-AD transgenic mouse harboring human PS1M146V/APPSWE/tauP301L assessed as number of entries to the target quadrant at 1 mg/kg, po for 8 weeks measured by Morris water maze test; type: functional, organism-based
[6] = test system: Mus musculus; assay: Cognitive enhancing effect in female 3xTg-AD transgenic mouse harboring human PS1M146V/APPSWE/tauP301L assessed as time spent in the target quadrant at 1 mg/kg, po for […] by Morris water maze test; type: functional, organism-based; conditions: time 8.0 weeks
[7] = test system: Mus musculus; assay: Cognitive enhancing effect in female 3xTg-AD transgenic mouse harboring human PS1M146V/APPSWE/tauP301L assessed as latency to enter to the target quadrant at 1 mg/kg, po for 8 weeks by Morris water maze test; type: functional, organism-based
[8] = test system: Mus musculus; assay: Cognitive enhancing effect in female 3xTg-AD transgenic mouse harboring human PS1M146V/APPSWE/tauP301L assessed as escape latency time at 1 mg/kg, po for 8 weeks by Morris water maze test; type: functional, organism-based
[9] = Ex vivo binding affinity to amyloid beta (1 to 42) in 3xTg-AD transgenic APP/PS1 mouse brain section assessed as binding constant after 40 mins by autoradiography; type: tissue-based
[10] = Octanol/PBS partition co-efficient, log P of compound; type: physicochemical
[11] = biological target: Amyloid-beta precursor protein (Homo sapiens) (UniProt P05067); assay: Inhibition of Abeta(1 to 42) peptide aggregation in immortalized human microglia with SV40 assessed as reduction in fluorescence intensity at 1 uM and measured after 48 hrs by thiazine red staining method
[12] = test system: Mus musculus; assay: Reduction in amyloid fibril elongation in po dosed 3xTg-AD transgenic mouse brain hippocampus subiculum using BAM-10 primary antibody by immunohistochemical assay relative to 3xTg-AD-non T; type: functional, organism-based

Chain of Amyloid-beta precursor protein (Homo sapiens) (P05067 whole entry): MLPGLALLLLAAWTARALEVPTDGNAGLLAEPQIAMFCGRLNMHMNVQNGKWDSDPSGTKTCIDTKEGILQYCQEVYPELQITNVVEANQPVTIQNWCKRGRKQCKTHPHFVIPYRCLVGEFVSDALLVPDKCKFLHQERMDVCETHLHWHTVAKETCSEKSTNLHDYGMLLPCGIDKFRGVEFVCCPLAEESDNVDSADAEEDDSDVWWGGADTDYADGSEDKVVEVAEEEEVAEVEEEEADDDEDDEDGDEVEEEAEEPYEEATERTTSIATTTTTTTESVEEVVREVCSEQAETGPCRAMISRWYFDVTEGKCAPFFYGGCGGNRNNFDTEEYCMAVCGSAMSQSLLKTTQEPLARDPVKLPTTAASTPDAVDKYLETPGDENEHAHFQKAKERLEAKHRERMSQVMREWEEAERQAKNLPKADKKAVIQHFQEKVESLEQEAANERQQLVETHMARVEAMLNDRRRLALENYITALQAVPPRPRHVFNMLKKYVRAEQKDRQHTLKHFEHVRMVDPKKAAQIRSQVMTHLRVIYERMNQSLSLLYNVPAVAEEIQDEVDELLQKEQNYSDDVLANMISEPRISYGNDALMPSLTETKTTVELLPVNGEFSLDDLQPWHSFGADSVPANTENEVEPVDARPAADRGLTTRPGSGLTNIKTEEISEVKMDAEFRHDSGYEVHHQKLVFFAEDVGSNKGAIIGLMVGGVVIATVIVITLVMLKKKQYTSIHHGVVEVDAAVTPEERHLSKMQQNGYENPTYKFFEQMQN

O=C(O)CCNC(=O)CCC(=O)Nc1cccc2ccccc12
IC50 [1]: 874 µM | inhibition [2]: Active | inhibition [3]: Active

CSC(=S)NCCNC(=O)CCC(=O)Nc1cccc2ccccc12
Activity [4]: Active | IC50 [1]: 195 µM | Activity [5]: Active | Activity [6]: inactive | Activity [7]: inactive | Activity [8]: inactive | Kd [9]: 0.0158 µM | logP [10]: 1.77 | inhibition [11]: Active | inhibition [3]: Active | inhibition [12]: Active

CNc1ccc(/C=C/c2ccc(OCCOCCOCCF)cc2)cc1 [FLORBETABEN]
Kd [9]: 0.016 µM

O=C(O)CCCCCNC(=O)CCC(=O)Nc1cccc2ccccc12
IC50 [1]: 433 µM | inhibition [2]: Active | inhibition [3]: Active
